Test results published in patent EP4660184A1 (Eurofarma Laboratórios S.A., priority 2023, dated 2024).

What was measured:
[1] = target: T1, human sodium channels Nav 1.7 (Homo sapiens, UniProt Q15858); assay: Automated whole-cell voltage-clamp (ScreenPatch 384P) sodium current block, Nav 1.7; assay type: cell-based; details: CHO cells stably expressing human Nav 1.7; inactivation step -40 mV for 8 seconds, test step 0 mV (TP1A); exposure at least five minutes; room temperature; mean if two or more assays; read-out: Nav1.7 IC50
T1 construct: expressed in transfected cells
Procedure: (§1) Biological assays were performed on Chinese hamster ovary (CHO) cells that express human sodium channels Nav 1.8 or Nav 1.7 in a stable manner.
(§2) The experimental protocol voltage-clamp using the whole cell configuration was established on the automated ScreenPatch® 384P platform (SP384PE, Nanion Technologies, Livingston, NJ) and the results were recorded with a Nanion 384-well Patch Clamp chip (NPC) (Nanion Technologies, Livingston, NJ).
(§3) Formula I compounds were diluted in eight concentrations in the extracellular solution composed of saline saline solution, buffered with HEPES (mM): NaCl, 137; KCl, 4; CaCl2, 3,8; MgCl2, 1; HEPES, 10; Glucose, 10; pH 7.4. The […], 50; CsF, 90; MgCl2, 5; EGTA, 5; HEPES, 10; pH 7.2. The duration of exposure of each compound with cells expressing Nav 1.7 or Nav 1.8 was at least five minutes and the assays were performed at room temperature.
(§4) The measurements of the sodium currents of Nav 1.8 and Nav 1.7 were obtained using the voltage protocol described below.
(§5) A holding voltage of -100 mV was established followed by an inactivation voltage step at -40 mV for 8 seconds, followed by a step of -100 mV for 20 ms, followed by a 20 ms step for 10 mV for Nav 1.8 or 0 mV for Nav 1.7 (TP1A) before returning to the holding voltage of -100 mV.
(§6) The protocol was repeated at a frequency of 0.05 Hz and the amplitude of the current was quantified throughout the recording of the TP1A phase. The variation in the amplitude of the peak current was evaluated according to the formula described below, after exposing the cells expressing the channels to each concentration of the different compounds: % Block = (1−(ITP1A,molecule/ITP1A,basal)×100%, [formula] wherein ITP1A,basal and ITP1A,molecule represent the peaks of sodium current input into TP1A before exposure to the compound and in the presence of the compound, respectively.
(§7) Data were obtained by nonlinear regression (nonlinear least squares) with XLfit for Excel (Microsoft, Redmond, WA).
(§8) The compounds were tested in at least one assay to obtain the value of CI50. For compounds that were tested in two or more assays, the results are described as the mean of the CI50 values.

[2] = target: T2, human sodium channels Nav 1.8 (Homo sapiens, UniProt Q9Y5Y9); assay: Automated whole-cell voltage-clamp (ScreenPatch 384P) sodium current block, Nav 1.8; assay type: cell-based; details: CHO cells stably expressing human Nav 1.8; inactivation step -40 mV for 8 seconds, test step 10 mV (TP1A); exposure at least five minutes; room temperature; mean if two or more assays; read-out: Nav1.8 IC50
T2 construct: expressed in transfected cells
Procedure: as §1, §2, §3, §4, §5, §6, §7, §8

T2 sequence (Q9Y5Y9 whole entry): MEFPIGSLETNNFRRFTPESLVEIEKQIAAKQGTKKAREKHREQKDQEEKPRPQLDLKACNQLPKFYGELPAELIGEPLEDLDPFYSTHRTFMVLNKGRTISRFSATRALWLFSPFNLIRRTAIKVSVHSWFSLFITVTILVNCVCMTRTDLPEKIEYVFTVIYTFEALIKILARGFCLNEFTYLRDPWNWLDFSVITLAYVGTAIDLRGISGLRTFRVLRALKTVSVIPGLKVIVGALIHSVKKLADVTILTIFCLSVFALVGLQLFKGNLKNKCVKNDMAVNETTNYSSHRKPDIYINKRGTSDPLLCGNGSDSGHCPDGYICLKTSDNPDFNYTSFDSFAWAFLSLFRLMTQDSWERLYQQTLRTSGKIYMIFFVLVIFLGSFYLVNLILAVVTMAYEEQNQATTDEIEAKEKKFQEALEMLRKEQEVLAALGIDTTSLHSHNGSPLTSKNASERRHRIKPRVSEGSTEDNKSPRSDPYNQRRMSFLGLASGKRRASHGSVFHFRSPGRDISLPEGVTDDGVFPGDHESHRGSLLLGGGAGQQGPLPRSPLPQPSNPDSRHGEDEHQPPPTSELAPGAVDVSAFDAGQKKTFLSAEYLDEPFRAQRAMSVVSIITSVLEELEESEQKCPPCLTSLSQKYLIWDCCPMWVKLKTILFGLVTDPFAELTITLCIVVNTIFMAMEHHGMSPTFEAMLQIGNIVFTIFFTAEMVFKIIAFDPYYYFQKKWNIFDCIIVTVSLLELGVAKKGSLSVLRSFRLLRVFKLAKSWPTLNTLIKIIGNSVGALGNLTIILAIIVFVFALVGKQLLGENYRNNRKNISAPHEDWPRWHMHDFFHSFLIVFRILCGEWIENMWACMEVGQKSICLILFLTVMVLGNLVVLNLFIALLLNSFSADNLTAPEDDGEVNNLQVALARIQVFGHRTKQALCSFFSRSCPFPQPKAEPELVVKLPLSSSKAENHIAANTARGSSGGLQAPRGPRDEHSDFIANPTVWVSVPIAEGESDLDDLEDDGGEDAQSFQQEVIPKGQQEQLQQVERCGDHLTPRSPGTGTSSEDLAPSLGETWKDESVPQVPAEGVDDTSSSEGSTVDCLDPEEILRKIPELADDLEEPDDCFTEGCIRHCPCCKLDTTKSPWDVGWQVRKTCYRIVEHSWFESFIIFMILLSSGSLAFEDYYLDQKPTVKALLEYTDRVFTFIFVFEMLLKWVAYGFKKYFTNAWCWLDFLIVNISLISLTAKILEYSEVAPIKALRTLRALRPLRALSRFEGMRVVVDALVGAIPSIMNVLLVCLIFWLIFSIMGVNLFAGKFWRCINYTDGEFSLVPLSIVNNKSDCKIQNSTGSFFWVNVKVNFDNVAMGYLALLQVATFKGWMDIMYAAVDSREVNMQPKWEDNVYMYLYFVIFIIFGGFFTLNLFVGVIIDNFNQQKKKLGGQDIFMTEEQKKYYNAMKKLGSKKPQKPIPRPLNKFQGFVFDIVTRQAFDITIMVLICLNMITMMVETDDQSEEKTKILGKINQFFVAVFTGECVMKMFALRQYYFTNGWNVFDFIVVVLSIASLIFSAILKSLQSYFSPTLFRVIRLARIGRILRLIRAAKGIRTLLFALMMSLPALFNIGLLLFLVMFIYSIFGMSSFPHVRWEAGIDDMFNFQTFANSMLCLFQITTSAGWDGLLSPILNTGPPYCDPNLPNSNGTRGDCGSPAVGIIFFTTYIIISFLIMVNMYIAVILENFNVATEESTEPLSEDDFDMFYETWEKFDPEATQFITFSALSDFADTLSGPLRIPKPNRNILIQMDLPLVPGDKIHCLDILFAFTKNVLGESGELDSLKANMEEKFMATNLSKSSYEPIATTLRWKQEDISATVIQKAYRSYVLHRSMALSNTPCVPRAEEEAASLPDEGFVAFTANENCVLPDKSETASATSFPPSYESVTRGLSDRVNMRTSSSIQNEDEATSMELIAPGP
T1 sequence (Q15858 whole entry): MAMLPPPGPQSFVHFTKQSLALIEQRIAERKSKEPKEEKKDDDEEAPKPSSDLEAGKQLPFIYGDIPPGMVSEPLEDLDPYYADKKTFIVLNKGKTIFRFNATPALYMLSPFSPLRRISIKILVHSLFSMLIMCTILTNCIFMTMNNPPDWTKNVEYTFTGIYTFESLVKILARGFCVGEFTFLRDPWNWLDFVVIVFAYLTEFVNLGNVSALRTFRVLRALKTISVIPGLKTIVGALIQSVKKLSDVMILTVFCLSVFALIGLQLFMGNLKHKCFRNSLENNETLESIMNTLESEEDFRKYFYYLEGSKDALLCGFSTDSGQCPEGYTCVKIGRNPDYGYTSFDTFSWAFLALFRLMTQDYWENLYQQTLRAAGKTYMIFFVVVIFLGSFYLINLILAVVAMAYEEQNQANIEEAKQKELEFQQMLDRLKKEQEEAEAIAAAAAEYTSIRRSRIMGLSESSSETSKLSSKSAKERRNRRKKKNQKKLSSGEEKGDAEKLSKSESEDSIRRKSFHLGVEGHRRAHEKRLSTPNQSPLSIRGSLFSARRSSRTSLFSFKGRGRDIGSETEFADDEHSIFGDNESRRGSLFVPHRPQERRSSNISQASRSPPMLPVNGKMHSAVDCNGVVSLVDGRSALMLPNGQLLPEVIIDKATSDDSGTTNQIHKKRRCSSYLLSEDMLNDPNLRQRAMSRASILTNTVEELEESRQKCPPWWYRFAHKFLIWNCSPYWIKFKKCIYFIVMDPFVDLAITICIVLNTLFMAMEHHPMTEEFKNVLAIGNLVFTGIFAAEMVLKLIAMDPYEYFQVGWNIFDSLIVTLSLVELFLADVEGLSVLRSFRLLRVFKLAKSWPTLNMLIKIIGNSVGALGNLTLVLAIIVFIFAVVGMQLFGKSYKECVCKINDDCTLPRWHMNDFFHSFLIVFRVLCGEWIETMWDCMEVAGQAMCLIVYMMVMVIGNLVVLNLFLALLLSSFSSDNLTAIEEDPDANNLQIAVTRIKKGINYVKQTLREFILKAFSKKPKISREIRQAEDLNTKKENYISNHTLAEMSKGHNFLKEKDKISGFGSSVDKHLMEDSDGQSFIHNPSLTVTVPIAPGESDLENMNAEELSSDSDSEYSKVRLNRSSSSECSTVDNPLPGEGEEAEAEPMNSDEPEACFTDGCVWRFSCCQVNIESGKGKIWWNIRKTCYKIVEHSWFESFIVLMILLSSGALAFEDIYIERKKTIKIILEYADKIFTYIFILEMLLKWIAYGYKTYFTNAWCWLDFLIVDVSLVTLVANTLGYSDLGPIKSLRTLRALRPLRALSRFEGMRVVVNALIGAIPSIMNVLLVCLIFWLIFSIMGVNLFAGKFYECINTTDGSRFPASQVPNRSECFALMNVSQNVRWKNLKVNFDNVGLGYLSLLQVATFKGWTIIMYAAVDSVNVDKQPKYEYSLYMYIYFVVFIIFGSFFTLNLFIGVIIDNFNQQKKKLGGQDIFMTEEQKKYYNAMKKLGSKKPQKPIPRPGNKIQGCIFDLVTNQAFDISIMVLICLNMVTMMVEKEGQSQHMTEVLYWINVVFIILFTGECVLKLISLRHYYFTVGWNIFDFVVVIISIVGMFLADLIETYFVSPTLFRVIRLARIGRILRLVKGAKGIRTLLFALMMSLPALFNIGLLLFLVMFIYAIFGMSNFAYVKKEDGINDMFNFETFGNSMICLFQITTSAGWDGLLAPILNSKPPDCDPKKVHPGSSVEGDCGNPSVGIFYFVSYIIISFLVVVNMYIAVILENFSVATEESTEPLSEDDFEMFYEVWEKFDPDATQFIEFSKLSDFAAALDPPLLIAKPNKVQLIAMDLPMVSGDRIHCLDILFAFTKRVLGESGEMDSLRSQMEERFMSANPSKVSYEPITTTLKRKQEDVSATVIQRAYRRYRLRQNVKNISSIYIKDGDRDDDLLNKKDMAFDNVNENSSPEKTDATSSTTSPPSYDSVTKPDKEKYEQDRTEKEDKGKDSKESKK

CCOc1ccc(-c2cncc(C(=O)NOCc3cc(OC)ccc3F)n2)cn1 [Compound 37, 6-(6-ethoxypyridine-3-yl)-N-((2-fluoro-5-methoxybenzyl)oxy)pyrazine-2-carboxamide]
IC50 [1]: > 1000 nM | IC50 [2]: < 500 nM

CCOc1ccc(-c2cncc(C(=O)NOCc3cn(C(C)C)cn3)n2)cn1 [Compound 70]
IC50 [1]: 500 to 1000 nM | IC50 [2]: < 500 nM

CCOc1ccc(-c2nccc(C(=O)NOCc3cc(OC)ccc3F)n2)cn1 [Compound 109]
IC50 [1]: > 1000 nM | IC50 [2]: < 500 nM

COc1ccc(F)c(CONC(=O)c2cnc(N)c(-c3ccc(OC(F)F)nc3)n2)c1 [Compound 122]
IC50 [1]: > 1000 nM | IC50 [2]: > 1000 nM

CCOc1ccc(-c2cncc(C(=O)NOCc3ccccc3F)n2)cn1 [Compound 32, 6-(6-ethoxypyridine-3-yl)-N-((2-fluorobenzyl)oxy)pyrazine-2-carboxamide]
IC50 [1]: > 1000 nM | IC50 [2]: 500 to 1000 nM

CCOc1ccc(-c2cncc(C(=O)NOCc3ncoc3C)n2)cn1 [Compound 57, 6-(6-ethoxypyridine-3-yl)-N-((5-methyloxazole-4-yl)methoxy)pyrazine-2-carboxamide]
IC50 [1]: > 1000 nM | IC50 [2]: > 1000 nM

CCOc1ccc(-c2cncc(C(=O)NOCc3cc(C(C)N)ccc3F)n2)cc1 (centres unmarked) [Compound 17, N-((5-(1-aminoethyl)-2-fluorobenzyl)oxy)-6-(4-ethoxyphenyl)pyrazine-2-carboxamide]
IC50 [1]: > 1000 nM | IC50 [2]: < 500 nM

CCOc1ccc(-c2cncc(C(=O)NOCc3cc(OC)ccc3F)c2)cn1 [Compound 108]
IC50 [1]: > 1000 nM | IC50 [2]: > 1000 nM

COc1ccc(-c2cncc(C(=O)NOCc3cc(OC)ccc3F)n2)cc1 [Compound 2, N-((2-fluoro-5-methoxybenzyl)oxy)-6-(4-methoxyphenyl)pyrazine-2-carboxamide]
IC50 [1]: > 1000 nM | IC50 [2]: < 500 nM

CCOc1ccc(-c2cncc(C(=O)NOCc3cc(OC)cnc3F)n2)cc1 [Compound 12, 6-(4-ethoxyphenyl)-N-((2-fluoro-5-methoxypyridine-3-yl)methoxy)pyrazine-2-carboxamide]
IC50 [1]: > 1000 nM | IC50 [2]: < 500 nM

CCOc1ccc(-c2cncc(C(=O)NOCc3cc(N(C)C)ccc3F)n2)cn1 [Compound 40, N-((5-(dimethylamino)-2-fluorobenzyl)oxy)-6-(6-ethoxypyridine-3-yl)pyrazine-2-carboxamide]
IC50 [1]: > 1000 nM | IC50 [2]: < 500 nM

CCOc1ccc(-c2cnc(F)c(C(=O)NOCc3cc(OC)ccc3F)n2)cn1 [Compound 105]
IC50 [1]: > 1000 nM | IC50 [2]: 500 to 1000 nM

COc1cncc(CONC(=O)c2cncc(-c3ccc(OC(F)F)cc3)n2)c1 [Compound 28, 6-(4-(difluoromethoxy)phenyl)-N-((5-methoxypyridine-3-yl)methoxy)pyrazine-2-carboxamide]
IC50 [1]: > 1000 nM | IC50 [2]: < 500 nM

[2H]C([2H])(C)Oc1ccc(-c2cncc(C(=O)NOCc3cc(OC)ccc3F)n2)cn1 [Compound 50, 6-(6-(ethoxy-1,1-d2)pyridine-3-yl)-N-((2-fluoro-5-methoxybenzyl)oxy)pyrazine-2-carboxamide]
IC50 [1]: > 1000 nM | IC50 [2]: > 1000 nM

CCOc1ccc(-c2cncc(C(=O)NOCc3cncn3C)n2)cn1 [Compound 56]
IC50 [1]: 500 to 1000 nM | IC50 [2]: < 500 nM

CCOc1ccc(-c2cncc(C(=O)NOCc3cc(OC)ccc3Cl)n2)cc1 [Compound 11, N-((2-chloro-5-methoxybenzyl)oxy)-6-(4-ethoxyphenyl)pyrazine-2-carboxamide]
IC50 [1]: 500 to 1000 nM | IC50 [2]: < 500 nM

CCOc1ccc(-c2cncc(C(=O)NOCc3cc(OC)ccc3F)n2)cc1 [Compound 9, 6-(4-ethoxyphenyl)-N-((2-fluoro-5-methoxybenzyl)oxy)pyrazine-2-carboxamide]
IC50 [1]: > 1000 nM | IC50 [2]: < 500 nM

[2H]C([2H])([2H])COc1ccc(-c2cncc(C(=O)NOCc3cc(OC([2H])([2H])[2H])ccc3F)n2)cn1 [Compound 52, 6-(6-(ethoxy-2,2,2-d3)pyridine-3-yl)-N-((2-fluoro-5-(methoxy-d3)benzyl)oxy)pyrazine-2-carboxamide]
IC50 [1]: > 1000 nM | IC50 [2]: > 1000 nM

CCOc1ccc(-c2nc(C(=O)NOCc3cc(OC)cc(OC)c3)cnc2O)cc1 [Compound 96]
IC50 [1]: < 500 nM | IC50 [2]: < 500 nM

O=C(NOCc1cccnc1)c1cncc(-c2ccc(OC(F)(F)F)nc2)n1 [Compound 74]
IC50 [1]: > 1000 nM | IC50 [2]: < 500 nM

CCOc1ccc(-c2nc(O)cc(C(=O)NOCc3cc(OC)ccc3F)n2)cc1 [Compound 112]
IC50 [1]: > 1000 nM | IC50 [2]: < 500 nM

[2H]C([2H])([2H])Oc1ccc(F)c(CONC(=O)c2cncc(-c3ccc(OC([2H])([2H])C([2H])([2H])[2H])nc3)n2)c1 [Compound 53, 6-(6-(ethoxy-d5)pyridine-3-yl)-N-((2-fluoro-5-(methoxy-d3)benzyl)oxy)pyrazine-2-carboxamide]
IC50 [1]: > 1000 nM | IC50 [2]: > 1000 nM

CCOc1ccc(-c2cccc(C(=O)NOCc3cc(OC)cnc3F)n2)cn1 [Compound 107]
IC50 [1]: > 1000 nM | IC50 [2]: > 1000 nM

COc1ccc(F)c(CONC(=O)c2cncc(-c3ccc(OC(C)C)nc3)n2)c1 [Compound 31, N-((2-fluoro-5-methoxybenzyl)oxy)-6-(6-isopropoxypyridine-3-yl)pyrazine-2-carboxamide]
IC50 [1]: > 1000 nM | IC50 [2]: 500 to 1000 nM

COc1ccc(F)c(CONC(=O)c2cncc(-c3ccc(OC4CN(C)C4)cc3)n2)c1 [Compound 25, N-((2-fluoro-5-methoxybenzyl)oxy)-6-(4-((1-methylazetidine-3-yl)oxy)phenyl)pyrazine-2-carboxamide]
IC50 [1]: > 1000 nM | IC50 [2]: 500 to 1000 nM

CCOc1ccc(-c2cncc(C(=O)NOCc3cncc(OC)c3)n2)cc1 [Compound 8, 6-(4-ethoxyphenyl)-N-((5-methoxypyridine-3-yl)methoxy)pyrazine-2-carboxamide]
IC50 [1]: > 1000 nM | IC50 [2]: > 1000 nM

COc1cnc(F)c(CONC(=O)c2cccc(-c3ccc(OC(F)F)nc3)n2)c1 [Compound 114]
IC50 [1]: > 1000 nM | IC50 [2]: 500 to 1000 nM

COc1cccc(CONC(=O)c2cncc(-c3ccc(OC(F)(F)F)nc3)n2)c1 [Compound 72]
IC50 [1]: < 500 nM | IC50 [2]: < 500 nM

CN(C)c1cnc(F)c(CONC(=O)c2cncc(-c3ccc(OC(F)F)nc3)n2)c1 [Compound 80]
IC50 [1]: > 1000 nM | IC50 [2]: 500 to 1000 nM

COc1ccc(F)c(CONC(=O)c2nc(-c3ccc(OC(F)F)nc3)cnc2F)c1 [Compound 123]
IC50 [1]: > 1000 nM | IC50 [2]: > 1000 nM

[2H]C([2H])([2H])Oc1ccc(F)c(C([2H])([2H])ONC(=O)c2cncc(-c3ccc(OC([2H])([2H])C([2H])([2H])[2H])nc3)n2)c1 [Compound 54, 6-(6-(ethoxy-d5)pyridine-3-yl)-N-((2-fluoro-5-(methoxy-d3)phenyl)methoxy-d2)pyrazine-2-carboxamide]
IC50 [1]: > 1000 nM | IC50 [2]: > 1000 nM

CCOc1ccc(-c2nc(C(=O)NOCc3cc(OC)ccc3F)cnc2O)cn1 [Compound 100]
IC50 [1]: > 1000 nM | IC50 [2]: < 500 nM

COc1ccc(F)c(CONC(=O)c2cncc(-c3ccc(OC)nc3)n2)c1 [Compound 30, N-((2-fluoro-5-methoxybenzyl)oxy)-6-(6-methoxypyridine-3-yl)pyrazine-2-carboxamide]
IC50 [1]: > 1000 nM | IC50 [2]: < 500 nM

COc1ccc(F)c(CONC(=O)c2cncc(-c3ccc(OCCC4CNC4)cc3)n2)c1 [Compound 24, 6-(4-(2-(azetidine-3-yl)ethoxy)phenyl)-N-((2-fluoro-5-methoxybenzyl)oxy)pyrazine-2-carboxamide]
IC50 [1]: > 1000 nM | IC50 [2]: > 1000 nM

COc1ccc(F)c(CONC(=O)c2cncc(-c3ccc(OCCC4CN(C)C4)cc3)n2)c1 [Compound 27, N-((2-fluoro-5-methoxybenzyl)oxy)-6-(4-(2-(1-methylazetidine-3-yl)ethoxy)phenyl)pyrazine-2-carboxamide]
IC50 [1]: > 1000 nM | IC50 [2]: < 500 nM

CCOc1ccc(-c2cncc(C(=O)NOCc3cncc(OC)c3)n2)cn1 [Compound 36, 6-(6-ethoxypyridine-3-yl)-N-((5-methoxypyridine-3-yl)methoxy)pyrazine-2-carboxamide]
IC50 [1]: > 1000 nM | IC50 [2]: < 500 nM

CCOc1ccc(-c2nc(C(=O)NOCc3cc(OC)ccc3F)cnc2N)cn1 [Compound 102]
IC50 [1]: > 1000 nM | IC50 [2]: < 500 nM
